Assay type in all cases: physicochemical
Data set [1] in a line: Photo-induced degradation of triazabutadienes under hand-held UV lamp, followed by NMR. The conditions noted are these: buffered borate solution, UV lamp, NMR integration. Here is the method: (i) The reaction was monitored by comparing starting materials (A, C, D, and E) with product (B); (ii) Peak absorption and extinction coefficients for all of the compounds were excitable by the UV source used; (iii) Time-dependent conversion of compounds was measured by NMR integration.
Referring to FIG. 5A, in some embodiments, triazabutadiene molecules of the present invention may readily photoisomerize to a more reactive Z-form. As an example, an aqueous solution of Compound A was irradiated with a simple hand-held UV lamp (“365 nm,” measured at 350 nm). Consumption of Compound A was observed after only a few hours. […] Without wishing to limit the present invention to any theory or mechanism, it was hypothesized that if a two-electron process were happening, then Compound A-Z would be more basic than Compound A-E. A 1.0 N NaOH solution of Compound A was treated with light. […] Benzene diazonium ions also absorb UV light to expel nitrogen and generate a benzene radical. In order to resolve if the initial cleavage undergoes a radical homolytic mechanism versus a two-electron heterolytic mechanism, a trapping experiment using resorcinol was conducted. (Resorcinol was chosen because it can serve a dual role as a radical scavenger and a trap benzene diazonium species that could be formed.) An excess of resorcinol was added to a pH 9 borate-buffered solution of Compound A and the mixture was irradiated with light. The known azobenzene, Sudan Orange G, was formed in a 65% yield (versus 4% for the non-irradiated reaction). Derivatives of Compound A were made to examine the effects of electronic perturbations on the light-induced degradation. […] A buffered borate solution was chosen due to its alkaline nature and lack of complicating signals in the NMR experiment. Compounds C-E all have absorption spectra that are well within the range of the UV lamp (see FIG. 5A(ii)).

A short description of data set [2]: In situ real-time pH measurement upon UV irradiation. The note with it: compared with Compound A. On the procedure: In an effort to examine the rate order for the pH-increasing reaction more carefully, in situ, real-time pH measurements were acquired. Compound A was dissolved in water and the pH of the solution was adjusted to 9 such that it would not form Compound B in the absence of light. […] This spike was not at all consistent with the model of the pH increase being solely linked to the concentration of Compound B being generated.
A sample was irradiated and then the light was turned off once the pH of the solution started to increase noticeably. […] The experiment was repeated with increasing times of irradiation, and a saw-tooth pattern was obtained. The process was not completely reversible due to some degradation to Compound B. Indeed, triazabutadiene Compound A can serve a dual role of being a photo-masked base (see FIG. 4B(i)), and a base whose intrinsic functional group properties are altered photochemically (FIG. 4B(iii)).
Referring to FIG. 5A(iii), Compound C and Compound D were examined in an effort to find a base that was reversibly basic but also more resistant to degradation.

Data set [3] is described as follows: Acid-triggered diazonium formation. The conditions noted are these: methanolic HCl or exposure to acid; trapped with resorcinol or Tyr 6. An excerpt:
(§1) As another non-limiting example, an azide (e.g., NHS-azide) to N-heterocyclic carbene (NHC) route may be used to synthesize triazabutadiene molecules (e.g., see FIG. 6C). For example, as shown in Compound 4 of FIG. 6D, a triazabutadiene molecule was synthesized from dimethyl imidazole derived NHC and phenyl azide. […] This change was confirmed to coincide with diazonium formation by trapping the reactive species with resorcinol to provide known diazo dye Sudan Orange G. When the triazabutadiene molecule (Compound 4) was treated with the much less acidic acetic acid, the same product was obtained.
To further examine the reactivity of this class of compounds, variants Compound 6d and Compound 6e were synthesized (see FIG. 6G). It was hypothesized that the p-methoxy and p-nitro analogs (Compound 6d and Compound 6e, respectively) would display different reactivity profiles. […] After collecting the precipitate and dissolving it in deuterated methanol, no change was observed from a sample of Compound 6e that had never been exposed to a buffered solution. […]

A short description of the next data set: Solubility observations. On the procedure:
It is possible that Compound A may be useful as a photo-catalytic base in the context of organic reactions. […] As noted previously, Compound A is quite stable to an excess of acetic acid in DMSO, showing only 12% degradation over 14 hours at room temperature. […] To confirm that this was due to the acid, a solution of Compound A (in pure DMSO) was irradiated. After four hours of constant irradiation in acid-free DMSO, an E:Z ratio of nearly 50:50 was observed.
as §1
(§2) To render the triazabutadiene water-soluble, methyl imidazole was alkylated with propane sultone to provide the Zwitterionic NHC precursor Compound 5a (see FIG. 6E). […] Compound 6a was highly colored, so its pH dependence was studied using UV/vis. The reactions were not only pH-, but also scan-frequency dependent. Upon finding this, the stability of Compound 6a was studied in D2O in the dark using NMR. Even in the dark it was unstable, but not in the diazonium-forming way. Both Compound 6b and a more hindered mesityl (Mes) substituted Compound 6c (see FIG. 6E) were synthesized to stabilize what was initially considered to be a rearrangement pathway that could be blocked by steric repulsion. […] Dissolution in 0.1 N NaOH rendered all compounds stable (e.g., no detectable degradation after 24 hours in the dark).
(§3) To further examine the reactivity of this class of compounds, variants Compound 6d and Compound 6e were synthesized (see FIG. 6G). It was hypothesized that the p-methoxy and p-nitro analogs (Compound 6d and Compound 6e, respectively) would display different reactivity profiles. […] After collecting the precipitate and dissolving it in deuterated methanol, no change was observed from a sample of Compound 6e that had never been exposed to a buffered solution. […] It is possible that: 1) that the sodium salt of Compound 6e is much less soluble than the potassium salt; or 2) with different solvating ions present the sulfonate interacts with the electron-poor N2 nitrogen atom of the triazabutadiene to break conjugation and form an insoluble complex (this is backed by a reversible color change of the starting rust-red solid, to the light yellow precipitate). […]

Data set [4] in a line: Decomposition in D2O / buffers followed by NMR. The conditions noted are these: for Compound consumed after 24 hours: D2O, in the dark. Here is the method: For decomposition experiments, buffers were made to the appropriate pH in a 9:1 mix of H2O:D2O. These solutions were added to the compound being assayed such that the buffer capacity was at least 10 fold the concentration of the compound. Some experiments used 5 mg compound in 0.5 mL of buffer (e.g., pH 5 acetate buffer at 25 degrees C.). These were immediately inserted into an NMR instrument and scans were taken at even time intervals to calculate the half-life of the compound based on integration.
as §2
As mentioned above, Compound 6c was reasonably stable in pure D2O. Upon adjusting the pH to 5 with HCl, a rapid initial consumption of Compound 6c to Compound 7 (see FIG. 6E) and a benzenediazonium salt was noted. After this initial burst of reactivity, a slowing and apparent arresting of the reaction was noted. At this pH the hydronium was the limiting reagent. All future reactions were run in buffers with a buffer capacity sufficient to maintain a large excess of hydronium ions. The experiments were performed in 90:10 H2O:D2O buffered solutions to minimize considerations of pH vs. pD. The decomposition to diazonium salts and Compound 7 was measured as a function of pH in phosphate/citrate buffers from pH 4-7 and in a phosphate buffer from pH 6-8. All runs provided linear correlations of concentration and time, indicating a pseudo-zero order reaction (first order with respect to hydronium ion with a large excess of hydronium ions). While the peaks for Compound 7 remained constant, the peaks associated with Compound 6c drifted downfield as the reaction progressed. This drifting was highly reproducible across samples and buffers, but the underlying cause is not understood at this time. A sigmoidal correlation between rate and buffer pH centered at pH 6 was obtained. When resorcinol was not added to consume the diazonium species, 4-phenylazophenol (Compound 8) was observed (see FIG. 6F). Compound 8 came from the decomposition of one diazonium ion to phenol followed by reaction with a second diazonium ion. The instability of Compound 6c in a pH 7 phosphate buffer was surprising given the stability in D2O. Compound 6c was tested in a non-buffered 90:10 H2O:D2O solution and observed only […] after 6 hours.
as §3

Data set [5] can be described thus: Hydrolysis (deprotection) rate of protected triazabutadienes. The note with it: relative to ethyl carbamate 7, FIG. 8G. Here is the method:
The reaction is assumed to be second order with the addition of hydroxide to be the rate-determining step.
Without wishing to limit the present invention to any theory or mechanism, it is believed that this can be rationalized by a model whereby the carbonyl is stabilized by being more electron rich and thus less prone to nucleophilic attack.
The reaction is assumed to be second order with the addition of hydroxide to be the rate-determining step. […] Compound was in a concentration of 31 μM in 25 mM sodium borate buffer of pH 10 with scans every 60 seconds. […] Scans were obtained every 60 seconds.

As for `Cc1cc(C)c(-n2ccn(CCCS(=O)(=O)[O-])c2=NN=Nc2ccc([N+](=O)[O-])cc2)c(C)c1.[K+]` [Compound E], the “Relative rate of light-induced degradation” value (“Relative rate” below) in data set [1] is “recalcitrant to degradation”. Consider `Cc1cc(C)c(-n2ccn(CCCS(=O)(=O)[O-])c2=NN=Nc2ccc(C#N)cc2)c(C)c1.[K+]` [Compound D], for which the “pH change on irradiation” value in data set [2] was “slow subtle change to the pH”. Moreover, the “Relative rate” value in data set [1] is “slower than Compound A”. As to `Cn1ccn(C)c1=NN=Nc1ccccc1` [Compound 4], the “Response to acid (diazonium formation)” value in data set [3] is reported as “rapid color change”. The Water solubility result in “Solubility observations” was “not water-soluble”. Take `Cc1cc(C)c(-n2ccn(CCCS(=O)(=O)[O-])c2=NN=Nc2ccc([N+](=O)[O-])cc2)c(C)c1.[K+]` [Compound 6e]: the “Response to acid (diazonium formation)” value in data set [3] is given as “immediate color change”. In addition, the “Stability after 24 hours” value in data set [4] (pure D2O, dark, room temperature, NMR) is “stable to within the detection limit of NMR”. Further, the “Behaviour in buffered solution (solubility)” value in the data set “Solubility observations” (pH 5, 6 and 7 phosphate/citrate buffer) is on record as “rapidly precipitated out of solution”. On to `CCOC(=O)N(N=Nc1n(-c2c(C)cc(C)cc2C)cc[n+]1-c1c(C)cc(C)cc1C)c1ccc(C)cc1.[Cl-]` [Compound 8], for which the “Effect of substituent on rate of deprotection / hydrolysis” value (shortened to “Effect … of deprotection / hydrolysis”) in data set [5] is listed as “slowed the rate of deprotection moderately”.

As for `Cn1ccn(CCCS(=O)(=O)O)c1=NN=Nc1ccccc1` [Compound 6a], the “Compound consumed after 24 hours” value in data set [4] (NMR) is 50%. In addition, the Water solubility entry in the data set “Solubility observations” was “highly water soluble”.

For the compound `Cc1cc(C)c(-n2ccn(CCCS(=O)(=O)[O-])c2=NN=Nc2ccccc2)c(C)c1.[K+]` [Compound 6c, Potassium 3-(3-mesityl-2-(phenyltriaz-2-en-1-ylidene)-2,3-dihydro-1H-imidazol-1-yl) propane-1-sulfonate], the “Compound consumed after 24 hours” value in data set [4] (NMR) is on record as “less than 10%”. The “Compound consumed after 6 hours” value in data set [4] (non-buffered 90:10 H2O:D2O) is listed as more than 7%. The “pH at centre of sigmoidal correlation between decomposition rate and buffer pH” value in data set [4] (phosphate/citrate pH 4-7 and phosphate pH 6-8 buffers, 90:10 H2O:D2O) was 6. With `COc1ccc(N=NN=c2n(CCCS(=O)(=O)[O-])ccn2-c2c(C)cc(C)cc2C)cc1.[K+]` [Compound 6d], the “Compound consumed after 24 hours” value in data set [4] (NMR) was 26%. Take `CCOC(=O)N(N=Nc1n(-c2c(C)cc(C)cc2C)cc[n+]1-c1c(C)cc(C)cc1C)c1ccc([N+](=O)[O-])cc1.[Cl-]` [Compound 11]: the “Effect … of deprotection / hydrolysis” value in data set [5] is recorded as “slowed hydrolysis”. Take `Cc1cc(C)c(-n2ccn(CCCS(=O)(=O)[O-])c2=NN=Nc2cccc([N+](=O)[O-])c2)c(C)c1.[K+]` [Compound C]: in data set [2], the “pH change on irradiation” value is reported as “slow subtle change to the pH”. For the same compound, in data set [1], the “Relative rate” value was “slower than Compound A”.

On to `Cc1cc(C)c(-n2cc[n+](-c3c(C)cc(C)cc3C)c2N=NN(C(=O)OCC(C)(C)C)c2ccccc2)c(C)c1.[Cl-]` [Compound 12], for which the “Effect … of deprotection / hydrolysis” value in data set [5] is recorded as “small change in rate”. Regarding `CCOC(=O)N(N=Nc1n(-c2c(C)cc(C)cc2C)cc[n+]1-c1c(C)cc(C)cc1C)c1ccc(OC)cc1.[Cl-]` [Compound 9], in data set [5], the “Effect … of deprotection / hydrolysis” value is listed as “rate could not be determined”. Consider `Cc1cc(C)c(-n2cc[n+](-c3c(C)cc(C)cc3C)c2N=NN(C(=O)OC(C)C)c2ccccc2)c(C)c1.[Cl-]` [Compound 13], for which, in data set [5], the “Effect … of deprotection / hydrolysis” value was “small change in rate”. Turning to `CC(C)(C)n1ccn(CCCS(=O)(=O)O)c1=NN=Nc1ccccc1` [Compound 6b], in data set [4] (NMR), the “Compound consumed after 24 hours” value amounted to 50%. As for `CCOC(=O)N(N=Nc1n(-c2c(C)cc(C)cc2C)cc[n+]1-c1c(C)cc(C)cc1C)c1ccc(C(F)(F)F)cc1.[Cl-]` [Compound 10], the “Effect … of deprotection / hydrolysis” value in data set [5] is on record as “slowed hydrolysis”.
